Values after ≈ are worked out from the molar mass of the structure shown. Like-named read-outs stand apart in the source and are kept apart here.
Experiments:
MRSA PK = target: T1, MRSA PK (Staphylococcus aureus, UniProt Q6GG09); assay: MRSA PK activity, continuous LDH-coupled assay; assay type: biochemical, S. aureus (MRSA strain Sanger 252); settings: for inhibition at 10 µM / inhibition at 1 µM: read-out: % inhibition at the highest concentration tested (IC50); for fold more potent: compared to 10a
T1 construct: His tag (pET-28a(+) vector) (N); made in house; host or cells: E. coli BL-21 (DE3)
T1 sequence (Q6GG09 whole entry): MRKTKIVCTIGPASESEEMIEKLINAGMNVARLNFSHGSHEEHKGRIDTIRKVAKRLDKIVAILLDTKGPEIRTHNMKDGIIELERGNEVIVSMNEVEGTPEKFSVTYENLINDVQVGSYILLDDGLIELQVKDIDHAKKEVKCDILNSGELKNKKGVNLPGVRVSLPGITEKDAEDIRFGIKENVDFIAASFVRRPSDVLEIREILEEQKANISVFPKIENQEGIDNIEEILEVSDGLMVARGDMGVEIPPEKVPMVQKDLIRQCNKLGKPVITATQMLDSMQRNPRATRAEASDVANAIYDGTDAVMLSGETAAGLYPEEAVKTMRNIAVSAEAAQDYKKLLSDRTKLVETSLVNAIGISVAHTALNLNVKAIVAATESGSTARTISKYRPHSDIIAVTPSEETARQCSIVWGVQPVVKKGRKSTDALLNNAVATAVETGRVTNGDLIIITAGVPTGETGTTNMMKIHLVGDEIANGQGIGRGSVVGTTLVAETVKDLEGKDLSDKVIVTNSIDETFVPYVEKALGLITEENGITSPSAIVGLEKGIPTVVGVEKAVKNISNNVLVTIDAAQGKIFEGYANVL
How it was run: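 Purified His-tagged MRSA PK (15 nM, E. coli-expressed) started reactions run up to 5 min at 30 °C. Activity was followed continuously by LDH-coupled NADH oxidation at 340 nm, with DMSO ≤1%. IC50 came from four-parameter variable-slope fits.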

S. aureus ATCC 29213 = assay: In vitro susceptibility, broth microdilution MIC; assay type: cell-based, Staphylococcus aureus; settings: for MIC: Staphylococcus aureus, read-out: MIC
How it was run: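 The MIC against S. aureus 29213 was determined by CLSI 2-fold serial broth microdilution in Mueller Hinton broth. Plates were incubated for 18–24 h at 37 °C and read at OD600 with background subtracted. The MIC was the lowest concentration giving complete growth inhibition versus compound-free wells.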

[1] = Tables 1-6, 2 mM ADP, 10 mM PEP, 15 nM PK, read-out: IC50
[2] = ATCC29213, Tables 1-6 and text, minimum concentration to give >98% inhibition of growth
[3] = ATCC29213, Table 8, tested at least in duplicate, differing values all given

## COc1ccc2[nH]c(-c3cc4ccc(Br)cc4[nH]3)cc2c1 [Compound 10f, 6′-Bromo-5-methoxy-1H,1′H-2,2′-biindole]
other
  melting point: 240 to 241 °C
MRSA PK; [1]
  IC50: 2.5 nM
S. aureus ATCC 29213; [2]
  MIC: > 64 µg/mL

## Brc1ccc2cc(-c3cc4ccccc4s3)[nH]c2c1 [Compound 22c, 2-(Benzo[b]thiophen-2-yl)-6-bromo-1H-indole]
other
  melting point: 250 to 252 °C
MRSA PK; [1]
  IC50: 14 nM
S. aureus ATCC 29213; [2]
  MIC: > 64 µg/mL

## Brc1ccc2cc(-c3cccc(-c4cc5ccccc5[nH]4)c3)[nH]c2c1 [Compound 33f, 2-(3-(1H-indol-2-yl)phenyl)-6-bromo-1H-indole]
other
  melting point: 224 to 226 °C
MRSA PK
  inhibition at 10 µM: 36%

## Cn1c(-c2cc3cc(Br)ccc3[nH]2)cc2ccc(Br)cc21 [Compound 12b, 5′,6-Dibromo-1-methyl-1H,2′H-2,2′-biindole]
other
  melting point: 192 to 194 °C
MRSA PK
  inhibition at 10 µM: 25%

## O=C(O)Cn1c(-c2cc3ccc(Br)cc3[nH]2)cc2cc(Br)ccc21 [Compound 14, 2-(5,6′-Dibromo-1H,1′H-[2,2′-biindol]-1-yl)acetic acid]
other
  melting point: 321 to 323 °C
MRSA PK; [1]
  IC50: 11.1 nM
S. aureus ATCC 29213; [2]
  MIC: > 64 µg/mL

## Brc1ccc2cc(C#Cc3cc4ccccc4[nH]3)[nH]c2c1 [Compound 25a, 2-((1H-indol-2-yl)ethynyl)-6-bromo-1H-indole]
other
  melting point: 240 to 242 °C
MRSA PK; [1]
  IC50: 7.1 nM
MRSA PK
  fold more potent: 3 fold
S. aureus ATCC 29213; [2]
  MIC: > 64 µg/mL

## Brc1ccc2cc(-c3cc4cc(-c5ccccc5)ccc4[nH]3)[nH]c2c1 [Compound 10g, 6′-Bromo-5-phenyl-1H,1′H-2,2′-biindole]
other
  melting point: 237 to 239 °C
MRSA PK; [1]
  IC50: 2.2 nM
S. aureus ATCC 29213; [2]
  MIC: > 64 µg/mL

## Brc1ccc2[nH]c(-c3nc4ccc(Br)cc4s3)cc2c1 [Compound 22g, 6-Bromo-2-(5-bromo-1H-indol-2-yl)benzo[d]thaizole]
other
  melting point: 246 to 248 °C
MRSA PK; [1]
  IC50: 4.1 nM
MRSA PK
  fold more potent: about 5 fold
S. aureus ATCC 29213; [2]
  MIC: > 64 µg/mL

## Brc1cc2cc(-c3cc4ccccc4[nH]3)[nH]c2cc1Br [Compound 10j, 5,6-Dibromo-1H,1′H-2,2′-biindole]
other
  melting point: 233 °C (dec.)
MRSA PK
  inhibition at 10 µM: 39%

## Brc1ccc2cc(-c3ccc(-c4cc5ccccc5[nH]4)cc3)[nH]c2c1 [Compound 33c, 2-(4-(1H-indol-2-yl)phenyl)-6-bromo-1H-indole]
other
  melting point: > 300 °C
MRSA PK; [1]
  IC50: 5.6 nM
S. aureus ATCC 29213; [2]
  MIC: > 64 µg/mL

## Clc1ccc2[nH]c(-c3cc4ccc(Br)cc4[nH]3)cc2c1 [Compound 10d, 6′-Bromo-5-chloro-1H,1′H-2,2′-biindole]
other
  melting point: 257 to 259 °C
MRSA PK; [1]
  IC50: 2 nM
S. aureus ATCC 29213; [2]
  MIC: 0.3 µg/mL (≈ 0.868 µM)

## Brc1ccc2[nH]c(-c3nc4ccccc4s3)cc2c1 [Compound 22d, 2-(5-Bromo-1H-indol-2-yl)benzo[d]thiazole]
other
  melting point: 208 to 210 °C
MRSA PK; [1]
  IC50: 358 nM
S. aureus ATCC 29213; [2]
  MIC: > 64 µg/mL

## Fc1ccc2[nH]c(-c3cc4ccc(Br)cc4[nH]3)cc2c1 [Compound 10e, 6′-Bromo-5-fluoro-1H,1′H-2,2′-biindole]
other
  melting point: 246 to 248 °C
MRSA PK; [1]
  IC50: 2.8 nM
S. aureus ATCC 29213; [2]
  MIC: 0.3 µg/mL (≈ 0.911 µM)

## Brc1ccc2[nH]c(-c3cc4ccccc4o3)cc2c1 [Compound 22e, 2-(Benzofuran-2-yl)-5-bromo-1H-indole]
other
  melting point: 236 to 238 °C
MRSA PK
  inhibition at 10 µM: 45%

## Brc1ccc2cc(-c3cc4ccccc4[nH]3)[nH]c2c1 [Compound 10a, 6-Bromo-1H,1′H-2,2′-biindole]
other
  melting point: 199 to 201 °C
MRSA PK; [1]
  IC50: 21.4 nM
S. aureus ATCC 29213; [2]
  MIC: 2 µg/mL (≈ 6.43 µM)
S. aureus ATCC 29213; compared to 10b
  fold more potent in the MIC assay: about 8 fold

## Brc1ccc2[nH]c(-c3cc4ccccc4s3)cc2c1 [Compound 22f, 2-(Benzo[b]thiophen-2-yl)-5-bromo-1H-indole]
other
  melting point: 269 to 271 °C
MRSA PK
  inhibition at 1 µM: 42%
S. aureus ATCC 29213; [2]
  MIC: > 64 µg/mL

## COCn1c(-c2cc3ccc(Br)cc3[nH]2)cc2cc(Br)ccc21 [Compound 12c, 5,6′-Dibromo-1-(methoxymethyl)-1H,1′H-2,2′-biindole]
other
  melting point: 199 to 201 °C
MRSA PK; [1]
  IC50: 1.9 nM
S. aureus ATCC 29213; [2]
  MIC: > 64 µg/mL

## O=C(Cn1c(-c2cc3ccc(Br)cc3[nH]2)cc2cc(Br)ccc21)N1CCOCC1 [Compound 15, 2-(5,6′-dibromo-1H,1′H-[2,2′-biindol]-1-yl)-1-morpholinoethanone]
other
  melting point: 320 to 322 °C
MRSA PK; [1]
  IC50: 6 nM
S. aureus ATCC 29213; [2]
  MIC: > 64 µg/mL

## O=C(Nc1nc2ccc(Br)cc2[nH]1)c1cc2ccc(Br)cc2[nH]1 [Compound 80, 6-Bromo-N-(6-bromo-1H-benzo[d]imidazol-2-yl)-1H-indole-2-carboxamide]
MRSA PK
  IC50: 1.5 nM
S. aureus ATCC 29213; [2]
  MIC: > 64 µg/mL

## Clc1ccc(CCc2cc3ccc(Br)cc3[nH]2)cn1 [Compound 120, 6-Bromo-2-(2-(6-chloropyridin-3-yl)ethyl)-1H-indole]
MRSA PK
  IC50: 50 to 100 nM
S. aureus ATCC 29213; [3]
  MIC: > 64 µg/mL

## COc1ccc(NC(=O)c2[nH]c3cc(Br)ccc3c2C(=O)O)cc1 [Compound 134, 6-Bromo-2-((4-methoxyphenyl)carbamoyl)-1H-indole-3-carboxylic acid]
MRSA PK
  IC50: < 50 nM
S. aureus ATCC 29213; [3]
  MIC: 64 µg/mL (≈ 164 µM)

## Cc1ccc(/C=C/c2cc3ccc(Br)cc3[nH]2)cn1 [Compound 106, (E)-6-Bromo-2-(2-(6-methylpyridin-3-yl)vinyl)-1H-indole]
MRSA PK
  IC50: > 1000 nM
S. aureus ATCC 29213; [3]
  MIC: > 64 µg/mL

## c1ccc2[nH]c(-c3ccc(-c4cc5ccccc5[nH]4)cc3)cc2c1 [Compound 46]
MRSA PK
  inhibition at 10 µM: 52%
S. aureus ATCC 29213; [2]
  MIC: > 16 µg/mL

## O=C(Nc1nc2ccc(Br)cc2s1)c1cccc(Cl)c1O [Compound 83, N-(6-bromobenzo[d]thiazol-2-yl)-3-chloro-2-hydroxybenzamide]
MRSA PK
  inhibition at 1 µM: 89%
S. aureus ATCC 29213; [2]
  MIC: 4 µg/mL (≈ 10.4 µM)

## COC(=O)c1c(C(=O)Nc2ccc(Br)cc2)[nH]c2cc(Br)ccc12 [Compound 131, Methyl 6-bromo-2-((4-bromophenyl)carbamoyl)-1H-indole-3-carboxylate]
MRSA PK
  EC50: 15 nM
S. aureus ATCC 29213; [3]
  MIC: > 64 µg/mL

## O=C(Nc1nc2cc(Br)ccc2s1)c1cc2ccccc2[nH]1 [Compound 53, N-(5-Bromobenzo[d]thiazol-2-yl)-1H-indole-2-carboxamide]
MRSA PK; [1]
  IC50: 50.9 nM
S. aureus ATCC 29213; [2]
  MIC: > 64 µg/mL

## Brc1ccc(/C=C/c2cc3ccc(Br)cc3[nH]2)nc1 [Compound 99, (E)-6-Bromo-2-(2-(5-bromopyridin-2-yl)vinyl)-1H-indole]
MRSA PK
  IC50: 50 to 100 nM
S. aureus ATCC 29213; [3]
  MIC: 32 µg/mL (≈ 84.6 µM)

## Fc1cc2cc(/C=C/c3ccc(Cl)cc3)[nH]c2cc1Br [Compound 161, (E)-6-Bromo-2-(4-chlorostyryl)-5-fluoro-1H-indole]
MRSA PK
  IC50: < 50 nM
S. aureus ATCC 29213; [3]
  MIC: > 64 µg/mL

## O=C(Nc1nc2cc(Br)ccc2s1)c1cc2cc(Br)ccc2[nH]1 [Compound 77, 5-Bromo-N-(5-bromobenzo[d]thiazol-2-yl)-1H-indole-2-carboxamide]
MRSA PK
  IC50: 8.2 nM
S. aureus ATCC 29213; [2]
  MIC: > 64 µg/mL

## O=C(Nc1nc2ccc(Br)cc2s1)c1cc2cc(Br)ccc2[nH]1 [Compound 82, 5-Bromo-N-(6-bromobenzo[d]thiazol-2-yl)-1H-indole-2-carboxamide]
MRSA PK
  IC50: 22.5 nM
S. aureus ATCC 29213; [2]
  MIC: > 64 µg/mL

## Brc1ccc(-c2cccc(-c3cc4ccccc4[nH]3)c2)cc1 [Compound 59, 2-(4′-Bromo-[1,1′-biphenyl]-3-yl)-1H-indole]
MRSA PK
  inhibition at 10 µM: 54%
S. aureus ATCC 29213; [2]
  MIC: > 64 µg/mL

## Brc1ccc2[nH]c(-c3ccc(-c4cc5ccc(Br)cc5[nH]4)s3)cc2c1 [Compound 47, 6-Bromo-2-(5-(5-bromo-1H-indol-2-yl)thiophen-2-yl)-1H-indole]
MRSA PK
  inhibition at 10 µM: 52%
S. aureus ATCC 29213; [2]
  MIC: > 64 µg/mL
